Source: ChEMBL document CHEMBL3351417, “Thiophene-3-carboxamide analogue of annonaceous acetogenins as antitumor drug lead” (Eur J Med Chem, 2014)

Experiments:
Format in all cases: functional
[1] = Growth inhibition of human HCT116 cells after 48 hrs by sulforhodamine B colorimetric assay; conditions: HCT-116, 48 h
[2] = Growth inhibition of human MKN7 cells after 48 hrs by sulforhodamine B colorimetric assay; conditions: MKN-7, 48 h
[3] = Growth inhibition of human OVCAR4 cells after 48 hrs by sulforhodamine B colorimetric assay; conditions: OVCAR-4, 48 h
[4] = Growth inhibition of human HBC4 cells after 48 hrs by sulforhodamine B colorimetric assay; conditions: HBC4, 48 h
[5] = Growth inhibition of human MKN28 cells after 48 hrs by sulforhodamine B colorimetric assay; conditions: MKN-28, 48 h
[6] = Growth inhibition of human PC3 cells after 48 hrs by sulforhodamine B colorimetric assay; conditions: PC-3, 48 h
SK-OV-3 = assay: Growth inhibition of human SKOV3 cells after 48 hrs by sulforhodamine B colorimetric assay; conditions: SK-OV-3, 48 h
[7] = Growth inhibition of human SF539 cells after 48 hrs by sulforhodamine B colorimetric assay; conditions: SF-539, 48 h
[8] = Growth inhibition of human OVCAR3 cells after 48 hrs by sulforhodamine B colorimetric assay; conditions: OVCAR-3, 48 h
[9] = Growth inhibition of human MKN1 cells after 48 hrs by sulforhodamine B colorimetric assay; conditions: MKN-1, 48 h
[10] = Growth inhibition of human HBC5 cells after 48 hrs by sulforhodamine B colorimetric assay; conditions: HBC5, 48 h
[11] = Growth inhibition of human RXF631L cells after 48 hrs by sulforhodamine B colorimetric assay; conditions: RXF 631, 48 h
A549 = assay: Growth inhibition of human A549 cells after 48 hrs by sulforhodamine B colorimetric assay; conditions: A549, 48 h
HT-29 = assay: Growth inhibition of human HT-29 cells after 48 hrs by sulforhodamine B colorimetric assay; conditions: HT-29, 48 h
[12] = Growth inhibition of human SF295 cells after 48 hrs by sulforhodamine B colorimetric assay; conditions: SF-295, 48 h
NCI-H226 = assay: Growth inhibition of human NCI-H226 cells after 48 hrs by sulforhodamine B colorimetric assay; conditions: NCI-H226, 48 h
NCI-H23 = assay: Growth inhibition of human NCI-H23 cells after 48 hrs by sulforhodamine B colorimetric assay; conditions: NCI-H23, 48 h
NCI-H522 = assay: Growth inhibition of human NCI-H522 cells after 48 hrs by sulforhodamine B colorimetric assay; conditions: NCI-H522, 48 h
[13] = Growth inhibition of human HCT15 cells after 48 hrs by sulforhodamine B colorimetric assay; conditions: HCT-15, 48 h
[14] = Growth inhibition of human MKN74 cells after 48 hrs by sulforhodamine B colorimetric assay; conditions: MKN-74, 48 h
SF-268 = assay: Growth inhibition of human SF268 cells after 48 hrs by sulforhodamine B colorimetric assay; conditions: SF-268, 48 h
MCF7 = assay: Growth inhibition of human MCF7 cells after 48 hrs by sulforhodamine B colorimetric assay; conditions: MCF7, 48 h
[15] = Growth inhibition of human DMS273 cells after 48 hrs by sulforhodamine B colorimetric assay; conditions: DMS-273, 48 h
MDA-MB-231 = assay: Growth inhibition of human MDA-MB-231 cells after 48 hrs by sulforhodamine B colorimetric assay; conditions: MDA-MB-231, 48 h
KM12 = assay: Growth inhibition of human KM12 cells after 48 hrs by sulforhodamine B colorimetric assay; conditions: KM12, 48 h
[16] = Growth inhibition of human HCC2998 cells after 48 hrs by sulforhodamine B colorimetric assay; conditions: HCC 2998, 48 h
[17] = Growth inhibition of human MKN45 cells after 48 hrs by sulforhodamine B colorimetric assay; conditions: MKN-45, 48 h
U-251 = assay: Growth inhibition of human U251 cells after 48 hrs by sulforhodamine B colorimetric assay; conditions: U-251, 48 h
[18] = Growth inhibition of human OVCAR8 cells after 48 hrs by sulforhodamine B colorimetric assay; conditions: OVCAR-8, 48 h
ACHN = assay: Growth inhibition of human ACHN cells after 48 hrs by sulforhodamine B colorimetric assay
[19] = Growth inhibition of human OVCAR5 cells after 48 hrs by sulforhodamine B colorimetric assay; conditions: OVCAR-5, 48 h
[20] = Growth inhibition of human LOXIMVI cells after 48 hrs by sulforhodamine B colorimetric assay; conditions: LOX IMVI
NCI-H460 = assay: Growth inhibition of human NCI-H460 cells after 48 hrs by sulforhodamine B colorimetric assay; conditions: NCI-H460, 48 h
DU-145 = assay: Growth inhibition of human DU145 cells after 48 hrs by sulforhodamine B colorimetric assay; conditions: DU-145, 48 h
SNB-75 = assay: Growth inhibition of human SNB75 cells after 48 hrs by sulforhodamine B colorimetric assay; conditions: SNB-75, 48 h
[21] = Growth inhibition of human BSY1 cells after 48 hrs by sulforhodamine B colorimetric assay; conditions: BSY-1, 48 h
[22] = Growth inhibition of human SNB78 cells after 48 hrs by sulforhodamine B colorimetric assay; conditions: SNB-78, 48 h
[23] = Growth inhibition of human DMS114 cells after 48 hrs by sulforhodamine B colorimetric assay; conditions: DMS-114, 48 h
St-4 = assay: Growth inhibition of human St-4 cells after 48 hrs by sulforhodamine B colorimetric assay; conditions: St-4, 48 h

Structure (SMILES): CCCCCCCCCCCC[C@@H](O)[C@H]1CC[C@H]([C@H](O)CCCCCCCCCCNC(=O)c2cncs2)O1
- GI50 [1]: 12.9 µM
- GI50 [2]: 0.617 µM
- GI50 [3]: > 100 µM
- GI50 [4]: > 100 µM
- GI50 [5]: 0.832 µM
- GI50 [6]: > 100 µM
- GI50 (SK-OV-3): > 100 µM
- GI50 [7]: 50.1 µM
- GI50 [8]: > 100 µM
- GI50 [9]: > 100 µM
- GI50 [10]: > 100 µM
- GI50 [11]: > 100 µM
- GI50 (A549): 34.7 µM
- GI50 (HT-29): > 100 µM
- GI50 [12]: 43.7 µM
- GI50 (NCI-H226): > 100 µM
- GI50 (NCI-H23): 4.79 µM
- GI50 (NCI-H522): 19.1 µM
- GI50 [13]: > 100 µM
- GI50 [14]: 61.7 µM
- GI50 (SF-268): > 100 µM
- GI50 (MCF7): > 100 µM
- GI50 [15]: 19.1 µM
- GI50 (MDA-MB-231): > 100 µM
- GI50 (KM12): > 100 µM
- GI50 [16]: > 100 µM
- GI50 [17]: > 100 µM
- GI50 (U-251): > 100 µM
- GI50 [18]: > 100 µM
- GI50 (ACHN): > 100 µM
- GI50 [19]: > 100 µM
- GI50 [20]: > 100 µM
- GI50 (NCI-H460): 34.7 µM
- GI50 (DU-145): > 100 µM
- GI50 (SNB-75): > 100 µM
- GI50 [21]: 3.98 µM
- GI50 [22]: > 100 µM
- GI50 [23]: 0.219 µM
- GI50 (St-4): > 100 µM

Structure (SMILES): CCCCCCCCCCCC[C@@H](O)[C@H]1CC[C@H]([C@H](O)CCCCCCCCCCCCC2=C[C@H](C)OC2=O)O1 [REL-SOLAMIN]
- GI50 [1]: > 100 µM
- GI50 [3]: > 100 µM
- GI50 [4]: > 100 µM
- GI50 [6]: > 100 µM
- GI50 (SK-OV-3): > 100 µM
- GI50 [7]: > 100 µM
- GI50 [8]: > 100 µM
- GI50 [9]: > 100 µM
- GI50 [10]: > 100 µM
- GI50 [11]: > 100 µM
- GI50 (A549): > 100 µM
- GI50 (HT-29): > 100 µM
- GI50 [12]: 39.8 µM
- GI50 (NCI-H226): > 100 µM
- GI50 [13]: > 100 µM
- GI50 [14]: > 100 µM
- GI50 (SF-268): > 100 µM
- GI50 [15]: > 100 µM
- GI50 (MDA-MB-231): > 100 µM
- GI50 (KM12): > 100 µM
- GI50 [16]: > 100 µM
- GI50 [17]: > 100 µM
- GI50 (U-251): > 100 µM
- GI50 [18]: > 100 µM
- GI50 (ACHN): > 100 µM
- GI50 [19]: > 100 µM
- GI50 (NCI-H460): > 100 µM
- GI50 (DU-145): > 100 µM
- GI50 (SNB-75): > 100 µM
- GI50 [21]: > 100 µM
- GI50 [22]: > 100 µM
- GI50 (St-4): > 100 µM

Structure (SMILES): CCCCCCCCCCCC[C@@H](O)[C@H]1CC[C@H]([C@H](O)CCCCCCCCCCNC(=O)c2cccs2)O1
- GI50 [1]: 1.29 µM
- GI50 [2]: 0.269 µM
- GI50 [3]: 1.82 µM
- GI50 [4]: 3.39 µM
- GI50 [5]: 0.363 µM
- GI50 [6]: 2.29 µM
- GI50 (SK-OV-3): 28.8 µM
- GI50 [7]: 17 µM
- GI50 [8]: 0.0427 µM
- GI50 [9]: 1.82 µM
- GI50 [10]: 3.24 µM
- GI50 [11]: 3.24 µM
- GI50 (A549): 3.72 µM
- GI50 (HT-29): 2.19 µM
- GI50 [12]: 1.41 µM
- GI50 (NCI-H226): 2.09 µM
- GI50 (NCI-H23): 0.676 µM
- GI50 (NCI-H522): 1.1 µM
- GI50 [13]: 5.75 µM
- GI50 [14]: 1.51 µM
- GI50 (SF-268): 3.98 µM
- GI50 (MCF7): 2.19 µM
- GI50 [15]: 1.82 µM
- GI50 (MDA-MB-231): 2.57 µM
- GI50 (KM12): 3.09 µM
- GI50 [16]: 2 µM
- GI50 [17]: 3.31 µM
- GI50 (U-251): 2 µM
- GI50 [18]: 3.02 µM
- GI50 (ACHN): 2.57 µM
- GI50 [19]: 2.51 µM
- GI50 [20]: 1.29 µM
- GI50 (NCI-H460): 2.29 µM
- GI50 (DU-145): 2.69 µM
- GI50 (SNB-75): 3.39 µM
- GI50 [21]: 18.2 µM
- GI50 [22]: 2.29 µM
- GI50 [23]: 0.282 µM
- GI50 (St-4): 1.82 µM

Structure (SMILES): CCCCCCCCCCCC[C@@H](O)[C@H]1CC[C@H]([C@H](O)CCCCCCCCCCNC(=O)c2ccco2)O1
- GI50 [1]: 7.76 µM
- GI50 [2]: 0.832 µM
- GI50 [3]: 15.8 µM
- GI50 [4]: > 100 µM
- GI50 [5]: 0.617 µM
- GI50 [6]: > 100 µM
- GI50 (SK-OV-3): > 100 µM
- GI50 [7]: 81.3 µM
- GI50 [8]: > 100 µM
- GI50 [9]: > 100 µM
- GI50 [10]: > 100 µM
- GI50 [11]: > 100 µM
- GI50 (A549): > 100 µM
- GI50 (HT-29): > 100 µM
- GI50 [12]: 33.9 µM
- GI50 (NCI-H226): 97.7 µM
- GI50 (NCI-H23): 12.9 µM
- GI50 (NCI-H522): 18.2 µM
- GI50 [13]: > 100 µM
- GI50 [14]: 1.7 µM
- GI50 (SF-268): > 100 µM
- GI50 (MCF7): > 100 µM
- GI50 [15]: 39.8 µM
- GI50 (MDA-MB-231): > 100 µM
- GI50 (KM12): > 100 µM
- GI50 [16]: > 100 µM
- GI50 [17]: > 100 µM
- GI50 (U-251): > 100 µM
- GI50 [18]: > 100 µM
- GI50 (ACHN): > 100 µM
- GI50 [19]: > 100 µM
- GI50 [20]: 17 µM
- GI50 (NCI-H460): 18.2 µM
- GI50 (DU-145): > 100 µM
- GI50 (SNB-75): > 100 µM
- GI50 [21]: 0.49 µM
- GI50 [22]: > 100 µM
- GI50 [23]: 0.282 µM
- GI50 (St-4): > 100 µM
